Laboratory results as given in patent publication US11001564B2, “Substituted chromane-8-carboxamide compounds and analogues thereof, and methods using same” (priority 2016, dated 2021).
Structures can show the parent of a compound that is named as a salt. Where two headings read alike, the source gives them in different places.

Test system: HBV rcDNA in HepDE19 cells
Assay: HepDE19 assay with bDNA quantitation of HBV rcDNA
Format: cell-based, hepatitis B virus (HBV)
Conditions: Hepatitis B virus, HepDE19, 168 h
Method in brief: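 HepG2-derived HepDE19 cells, switched to Tet-free medium, were exposed 7 days at 37 °C to compound (8-point ½-log series from 25 μM, 0.5% DMSO). HBV rcDNA measured by bDNA assay with HBV-specific probes; EC50/EC90 by 4-parameter fit. CC50 from CellTiter-Glo ATP on replicate plates after 4 days.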

[1] = read-out: DE-19 bDNA EC50, HepDE19 cells, 7 day incubation, rcDNA by Quantigene 2.0 bDNA assay
[2] = HepDE19 cells, 7 day incubation, rcDNA by Quantigene 2.0 bDNA assay, read-out: DE-19 bDNA EC50

Row | Compound | EC50 [1] | EC50 [2]
1 | COC(=O)N[C@H]1CCOc2c(C(=O)Nc3ccc(F)c(Cl)c3)ccc(F)c21 [Compound 91, Methyl (S)-(8-((3-chloro-4-fluorophenyl)carbamoyl)-5-fluorochroman-4-yl)carbamate] | 200 nM | –
2 | COC(=O)N[C@@H]1CCOc2c(C(=O)Nc3ccc(F)c(Cl)c3)ccc(F)c21 [Compound 92, (R)-Methyl (8-((3-chloro-4-fluorophenyl)carbamoyl)-5-fluorochroman-4-yl) carbamate] | 4600 nM | –
3 | O=C(N[C@H]1CCOc2c(C(=O)Nc3ccc(F)c(F)c3)ccc(F)c21)OCc1ccccn1 [Compound 93, Pyridin-2-ylmethyl (S)-(8-((3,4-difluorophenyl)carbamoyl)-5-fluorochroman-4-yl)carbamate] | – | 850 nM
4 | CN1CCC(COC(=O)N[C@H]2CCOc3c(C(=O)Nc4ccc(F)c(F)c4)cccc32)CC1 [Compound 95, (1-methylpiperidin-4-yl)methyl (S)-(8-((3,4-difluorophenyl)carbamoyl)chroman-4-yl)carbamate] | – | 24000 nM
5 | C[C@@H](OC1CCOc2c(C(=O)Nc3ccc(F)c(F)c3)cccc21)c1ccncc1 (stereo partly drawn) [Compound 96, N-(3,4-difluorophenyl)-4-((R)-1-(pyridin-4-yl)ethoxy)chromane-8-carboxamide] | – | 15000 nM
6 | O=C(Nc1ccc(F)c(F)c1)c1cccc2c1OCCC2c1cnccn1 (stereo not shown) [Compound 97, N-(3,4-difluorophenyl)-4-(pyrazin-2-yl)chromane-8-carboxamide] | – | 16000 nM
7 | Cn1nccc1COC(=O)N[C@H]1CCOc2c(C(=O)Nc3ccc(F)c(F)c3)cccc21 [Compound 100, (1-Methyl-1H-pyrazol-5-yl)methyl (S)-(8-((3,4-difluorophenyl)carbamoyl)chroman-4-yl)carbamate] | – | 2600 nM
8 | Cn1nccc1CN[C@H]1CCOc2c(C(=O)Nc3ccc(F)c(F)c3)cccc21 [Compound 101] | – | 21000 nM
9 | COc1ccc(COC(=O)N[C@H]2CCOc3c(C(=O)Nc4ccc(F)c(F)c4)cccc32)nc1 [Compound 102, (5-Methoxypyridin-2-yl)methyl (S)-(8-((3,4-difluorophenyl)carbamoyl)chroman-4-yl)carbamate hydrochloride] | 2500 nM | –
10 | O=C(N[C@H]1CCOc2c(C(=O)Nc3ccc(F)c(F)c3)cccc21)OCc1ccon1 [Compound 103, Isoxazol-3-ylmethyl (S)-(8-((3,4-difluorophenyl)carbamoyl)chroman-4-yl)carbamate] | – | 2100 nM
11 | CNC(=O)N[C@H]1CCOc2c(C(=O)Nc3ccc(F)c(Cl)c3)ccc(F)c21 [Compound 104, (S)—N-(3-Chloro-4-fluorophenyl)-5-fluoro-4-(3-methylureido)chromane-8-carboxamide] | 400 nM | –
12 | O=C(N[C@H]1CCOc2c(C(=O)Nc3ccc(F)c(Cl)c3)ccc(F)c21)OCc1ccccn1 [Compound 105, Pyridin-2-ylmethyl (S)-(8-((3-chloro-4-fluorophenyl)carbamoyl)-5-fluorochroman-4-yl)carbamate] | – | 370 nM
13 | O=C(N[C@@H]1CCOc2c(C(=O)Nc3ccc(F)c(Cl)c3)ccc(F)c21)OCc1ccccn1 [Compound 106, pyridin-2-ylmethyl (R)-(8-((3-chloro-4-fluorophenyl)carbamoyl)-5-fluorochroman-4-yl)carbamate] | – | 20000 nM
14 | O=C(N[C@H]1CCOc2c(C(=O)Nc3ccc(F)c(F)c3)cccc21)OCC1CCNCC1 [Compound 107, piperidin-4-ylmethyl (S)-(8-((3,4-difluorophenyl)carbamoyl)chroman-4-yl)carbamate] | – | 21000 nM
15 | O=C1CCOc2c1c(F)cc(F)c2C(=O)Nc1ccc(F)c(F)c1 [Compound 110, N-(3,4-difluorophenyl)-5,7-difluoro-4-oxochromane-8-carboxamide] | – | 1600 nM
16 | COc1cccc(COC(=O)N[C@H]2CCOc3c(C(=O)Nc4ccc(F)c(F)c4)cccc32)n1 [Compound 111, (6-Methoxypyridin-2-yl)methyl (S)-(8-((3,4-difluorophenyl)carbamoyl)chroman-4-yl)carbamate hydrochloride] | 2700 nM | –
17 | O=C(N[C@H]1CCOc2c(C(=O)Nc3ccc(F)c(Cl)c3)cccc21)OCc1cnccn1 [Compound 112, Pyrazin-2-ylmethyl (S)-(8-((3-chloro-4-fluorophenyl)carbamoyl)chroman-4-yl)carbamate] | – | 770 nM
18 | Cc1cc(NC(=O)c2ccc(F)c3c2OCC[C@@H]3NC(=O)OCc2ccccn2)ccc1F [Compound 113, Pyridin-2-ylmethyl (S)-(5-fluoro-8-((4-fluoro-3-methylphenyl)carbamoyl)chroman-4-yl)carbamate] | – | 560 nM
19 | Cc1cc(NC(=O)c2ccc(F)c3c2OCC[C@@H]3NC(=O)OCc2cnccn2)ccc1F [Compound 114, Pyrazin-2-ylmethyl (S)-(5-fluoro-8-((4-fluoro-3-methylphenyl)carbamoyl)chroman-4-yl)carbamate] | – | 500 nM

Row | Compound | EC50 [1] | EC50 [2]
20 | COC(=O)N[C@H]1CCOc2c(C(=O)Nc3ccc(F)c(F)c3)c(F)cc(F)c21 [Compound 115, Methyl (S)-(8-((3,4-difluorophenyl)carbamoyl)-5,7-difluorochroman-4-yl)carbamate] | 800 nM | –
21 | CNC(=O)N[C@H]1CCOc2c(C(=O)Nc3ccc(F)c(F)c3)c(F)cc(F)c21 [Compound 116, (S)—N-(3,4-Difluorophenyl)-5,7-difluoro-4-(3-methylureido)chromane-8-carboxamide] | 1800 nM | –
22 | COC(=O)N[C@H]1CCOc2c(C(=O)Nc3ccc(F)c(C)c3)ccc(F)c21 [Compound 117, Methyl (5-fluoro-8-((4-fluoro-3-methylphenyl)carbamoyl)chroman-4-yl)carbamate] | 220 nM | –
23 | O=C1CC[C@@H](COC(=O)N[C@H]2CCOc3c(C(=O)Nc4ccc(F)c(F)c4)cccc32)N1 [Compound 118, ((S)-5-Oxopyrrolidin-2-yl)methyl ((S)-8-((3,4-difluorophenyl)carbamoyl)chroman-4-yl)carbamate] | – | 3600 nM
24 | O=C1CC[C@H](COC(=O)N[C@H]2CCOc3c(C(=O)Nc4ccc(F)c(F)c4)cccc32)N1 [Compound 119, ((R)-5-Oxopyrrolidin-2-yl)methyl ((S)-8-((3,4-difluorophenyl)carbamoyl)chroman-4-yl)carbamate] | – | 8700 nM
25 | Cc1cc(NC(=O)c2ccc(F)c3c2OCC[C@@H]3NC(=O)OCc2ncccn2)ccc1F [Compound 120, Pyrimidin-2-ylmethyl (S)-(5-fluoro-8-((4-fluoro-3-methylphenyl)carbamoyl)chroman-4-yl)carbamate] | – | 540 nM
26 | CC(=O)N[C@H]1CCOc2c(C(=O)Nc3ccc(F)c(C)c3)ccc(F)c21 [Compound 121, (4S)-4-Acetamido-5-fluoro-N-(4-fluoro-3-methylphenyl)-3,4-dihydro-2H-1-benzopyran-8-carboxamide] | – | 620 nM
27 | CNC(=O)N[C@H]1CCOc2c(C(=O)Nc3ccc(F)c(C)c3)ccc(F)c21 [Compound 122, (S)-5-fluoro-N-(4-fluoro-3-methylphenyl)-4-(3-methylureido)chromane-8-carboxamide] | 320 nM | –
28 | O=C(N[C@H]1CCOc2c(C(=O)Nc3ccc(F)c(F)c3)cccc21)OCc1ncccc1Cl [Compound 123, (3-Chloropyridin-2-yl)methyl (S)-(8-((3,4-difluorophenyl)carbamoyl)chroman-4-yl)carbamate hydrochloride] | 8800 nM | –
29 | O=C(N[C@H]1CCOc2c(C(=O)Nc3ccc(F)c(F)c3)c(F)cc(F)c21)OCc1ccccn1 [Compound 124, pyridin-2-ylmethyl (S)-(8-((3,4-difluorophenyl)carbamoyl)-5,7-difluorochroman-4-yl)carbamate] | – | 25000 nM
30 | COC(=O)N[C@H]1CCOc2c(C(=O)Nc3ccc(F)c(F)c3)ccc(Cl)c21 [Compound 125, Methyl (S)-(5-chloro-8-((3,4-difluorophenyl)carbamoyl)chroman-4-yl)carbamate] | 2300 nM | –
31 | CNC(=O)N[C@H]1CCOc2c(C(=O)Nc3ccc(F)c(F)c3)ccc(Cl)c21 [Compound 126, (S)-5-chloro-N-(3,4-difluorophenyl)-4-(3-methylureido)chromane-8-carboxamide] | 740 nM | –
32 | CN1CCC(COC(=O)N[C@H]2CCOc3c(C(=O)Nc4ccc(F)c(F)c4)cccc32)C1 (stereo partly drawn) [Compound 127, (1-methylpyrrolidin-3-yl)methyl ((S)-8-((3,4-difluorophenyl)carbamoyl)chroman-4-yl)carbamate] | – | 24000 nM
33 | COC(=O)N[C@H]1CCOc2c(C(=O)Nc3ccc(F)c(OC)c3)ccc(F)c21 [Compound 128, Methyl (S)-(5-fluoro-8-((4-fluoro-3-methoxyphenyl)carbamoyl)chroman-4-yl)carbamate] | – | 1200 nM
34 | COCC(=O)N[C@H]1CCOc2c(C(=O)Nc3ccc(F)c(C)c3)ccc(F)c21 [Compound 129, (4S)-5-Fluoro-N-(4-fluoro-3-methylphenyl)-4-(2-methoxyacetamido)-3,4-dihydro-2H-1-benzopyran-8-carboxamide] | – | 2500 nM
35 | Cc1cc(NC(=O)c2ccc(F)c3c2OCC[C@@H]3NC(=O)OCc2ccncn2)ccc1F [Compound 130, Pyrimidin-4-ylmethyl (S)-(5-fluoro-8-((4-fluoro-3-methylphenyl)carbamoyl)chroman-4-yl)carbamate] | – | 620 nM
36 | CN(C)C(=O)CC1CCOc2c(C(=O)Nc3ccc(F)c(F)c3)cccc21 (stereo not shown) [Compound 133, N-(3,4-difluorophenyl)-4-(2-(dimethylamino)-2-oxoethyl) chromane-8-carboxamide] | – | 14000 nM
37 | O=C(N[C@H]1CCOc2c(C(=O)Nc3ccc(F)c(F)c3)ccc(Cl)c21)OCc1ccccn1 [Compound 134, Pyridin-2-ylmethyl (S)-(5-chloro-8-((3,4-difluorophenyl)carbamoyl)chroman-4-yl)carbamate] | – | 1300 nM
